In the supplement of paper PMC10307832:

Legend:
Experiment in all cases: relative viability (nuclei count vs DMSO), 5 days (fraction); higher = more cells survive
IU1-47 + Crizotinib = compound: CC1=CC(=C(N1C2=CC=C(C=C2)Cl)C)C(=O)CN3CCCCC3 [IU1-47] + C[C@@H](Oc1cc(-c2cnn(C3CCNCC3)c2)cnc1N)c1c(Cl)ccc(F)c1Cl [Crizotinib] (partner 1 µM)
Method in brief: (§1)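 Medians of duplicate plates are given as relative viability. That measure is the nuclei count in treated wells divided by the count in vehicle wells. Counts were taken on 4× images of lung cancer cell lines in 1536-well plates, 5 days after pin-tool dosing the day after seeding with one drug alone or a fixed anchor-drug dose plus five library-drug doses (not always all listed) in √10 steps.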

FG-4592 + Vorinostat = compound: Cc1nc(C(=O)NCC(=O)O)c(O)c2ccc(Oc3ccccc3)cc12 [FG-4592] + O=C(CCCCCCC(=O)Nc1ccccc1)NO [Vorinostat] (partner 1 µM)
Method in brief: as §1

IU1-47 + Palbociclib = compound: CC1=CC(=C(N1C2=CC=C(C=C2)Cl)C)C(=O)CN3CCCCC3 [IU1-47] + CC(=O)c1c(C)c2cnc(Nc3ccc(N4CCNCC4)cn3)nc2n(C2CCCC2)c1=O [Palbociclib] (partner 0.5 µM)
Method in brief: as §1

FG-4592 + Bortezomib = compound: Cc1nc(C(=O)NCC(=O)O)c(O)c2ccc(Oc3ccccc3)cc12 [FG-4592] + CC(C)C[C@H](NC(=O)[C@H](Cc1ccccc1)NC(=O)c1cnccn1)B(O)O [Bortezomib] (partner 0.002 µM)
Method in brief: as §1

Row | Cell Line | relative viability (IU1-47 + Crizotinib; first compound 0.08 µM) | relative viability (IU1-47 + Crizotinib; first compound 0.253 µM) | relative viability (IU1-47 + Crizotinib; first compound 0.8 µM) | relative viability (IU1-47 + Crizotinib; first compound 2.53 µM) | relative viability (IU1-47 + Crizotinib; first compound 8 µM) | relative viability (FG-4592 + Vorinostat; first compound 0.08 µM) | relative viability (FG-4592 + Vorinostat; first compound 0.253 µM) | relative viability (FG-4592 + Vorinostat; first compound 0.8 µM) | relative viability (FG-4592 + Vorinostat; first compound 2.53 µM) | relative viability (FG-4592 + Vorinostat; first compound 8 µM) | relative viability (IU1-47 + Palbociclib; first compound 0.08 µM) | relative viability (IU1-47 + Palbociclib; first compound 0.253 µM) | relative viability (IU1-47 + Palbociclib; first compound 0.8 µM) | relative viability (IU1-47 + Palbociclib; first compound 2.53 µM) | relative viability (IU1-47 + Palbociclib; first compound 8 µM) | relative viability (FG-4592 + Bortezomib; first compound 0.08 µM) | relative viability (FG-4592 + Bortezomib; first compound 0.253 µM) | relative viability (FG-4592 + Bortezomib; first compound 0.8 µM) | relative viability (FG-4592 + Bortezomib; first compound 2.53 µM) | relative viability (FG-4592 + Bortezomib; first compound 8 µM)
1 | PC-14 | 0.921 | 0.888 | 0.845 | 0.999 | 0.926 | 0.785 | 0.738 | 0.814 | 0.694 | 0.615 | 0.547 | 0.69 | 0.635 | 0.675 | 0.419 | 0.859 | 0.946 | 0.947 | 0.949 | 1.01
2 | RERF-LC-KJ | 0.805 | 0.86 | 0.787 | 0.848 | 0.884 | 0.672 | 0.629 | 0.705 | 0.486 | 0.701 | 1.32 | 1.18 | 1.04 | 1.16 | 1.07 | 0.99 | 0.975 | 0.967 | 1.11 | 1.06
3 | SK-LU-1 | 0.975 | 0.912 | 0.963 | 0.996 | 0.814 | 0.862 | 0.505 | 0.799 | 0.845 | 0.811 | 0.387 | 0.411 | 0.445 | 0.4 | 0.378 | – | 0.849 | 0.825 | 1.31 | 0.978
4 | SW 1573 | 0.728 | 0.796 | 0.761 | 0.859 | 0.903 | 0.708 | 0.965 | 0.604 | 0.543 | 0.494 | 0.357 | 0.385 | 0.379 | 0.509 | 0.31 | 1.04 | 0.954 | 0.963 | 1 | 1
